Assay results as given in PubChem BioAssay AID1919008 (Molecular Pharmacology Branch, DTP, NCI, 2023).

Tested on: DMS-114 complex spheroids with HUVEC/MSC, growth % test/control
Assay: Anticancer human tumor DMS-114 cell line growth inhibition [AhR];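 further: spheroids exposed to agents for 7 days before readout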;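 on viability, T/C: 100% = DMSO vehicle control wells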
Conditions: for IC50: curve of first compound; for viability, T/C: stronger effect = lower value
In short: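 Complex tumor spheroids co-cultured with HUVEC and human MSC stroma; AhR antagonists tested in combination with standard-of-care and investigational agents. Top concentration at or near clinical Cmax (else 10 microM), half-log dilutions; growth expressed as percent test/control.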

[1] = second compound 0.1 µM, first compound 0.0316 µM
[2] = second compound 0.1 µM, first compound 0.1 µM
[3] = second compound 0.1 µM, first compound 0.316 µM
[4] = second compound 0.1 µM, first compound 1 µM
[5] = second compound 0.1 µM, first compound 3.16 µM
[6] = second compound 0.1 µM, first compound 10 µM
[7] = second compound 0.316 µM, first compound 0.0316 µM
[8] = second compound 0.316 µM, first compound 0.1 µM
[9] = second compound 0.316 µM, first compound 0.316 µM
[10] = second compound 0.316 µM, first compound 1 µM
[11] = second compound 0.316 µM, first compound 3.16 µM
[12] = second compound 0.316 µM, first compound 10 µM
[13] = second compound 1 µM, first compound 0.0316 µM
[14] = second compound 1 µM, first compound 0.1 µM
[15] = second compound 1 µM, first compound 0.316 µM
[16] = second compound 1 µM, first compound 1 µM
[17] = second compound 1 µM, first compound 3.16 µM
[18] = second compound 1 µM, first compound 10 µM
[19] = second compound 3.16 µM, first compound 0.0316 µM
[20] = second compound 3.16 µM, first compound 0.1 µM
[21] = second compound 3.16 µM, first compound 0.316 µM
[22] = second compound 3.16 µM, first compound 1 µM
[23] = second compound 3.16 µM, first compound 3.16 µM
[24] = second compound 3.16 µM, first compound 10 µM
[25] = second compound 10 µM, first compound 0.0316 µM
[26] = second compound 10 µM, first compound 0.1 µM
[27] = second compound 10 µM, first compound 0.316 µM
[28] = second compound 10 µM, first compound 1 µM
[29] = second compound 10 µM, first compound 3.16 µM
[30] = second compound 10 µM, first compound 10 µM

CC(C)c1c(-c2ccccc2)nc2c(C#N)c[nH]n2c1=O + Cc1ccccc1N=Nc1ccc(NC(=O)c2ccnn2C)c(C)c1
IC50 (second compound 0.1 µM): > 10000 nM
IC50 (second compound 0.316 µM): > 10000 nM
IC50 (second compound 1 µM): > 10000 nM
IC50 (second compound 3.16 µM): > 10000 nM
IC50 (second compound 10 µM): > 10000 nM
viability, T/C [1]: 104%
viability, T/C [2]: 108%
viability, T/C [3]: 105%
viability, T/C [4]: 103%
viability, T/C [5]: 113%
viability, T/C [6]: 95.9%
viability, T/C [7]: 95.5%
viability, T/C [8]: 97.7%
viability, T/C [9]: 98.9%
viability, T/C [10]: 94.3%
viability, T/C [11]: 95.9%
viability, T/C [12]: 101%
viability, T/C [13]: 95.3%
viability, T/C [14]: 96.8%
viability, T/C [15]: 102%
viability, T/C [16]: 103%
viability, T/C [17]: 95.3%
viability, T/C [18]: 99.2%
viability, T/C [19]: 96%
viability, T/C [20]: 95.8%
viability, T/C [21]: 93%
viability, T/C [22]: 96.3%
viability, T/C [23]: 107%
viability, T/C [24]: 102%
viability, T/C [25]: 98.3%
viability, T/C [26]: 96.9%
viability, T/C [27]: 95.6%
viability, T/C [28]: 90.5%
viability, T/C [29]: 94.7%
viability, T/C [30]: 88.8%

CC1COCCN1c1cc(-c2ccnn2C)c2ccnc(-c3ccn[nH]3)c2n1 (stereo not given) + Cc1ccccc1N=Nc1ccc(NC(=O)c2ccnn2C)c(C)c1
IC50 (second compound 0.1 µM): 620 nM
IC50 (second compound 0.316 µM): 500 nM
IC50 (second compound 1 µM): 475 nM
IC50 (second compound 3.16 µM): 495 nM
IC50 (second compound 10 µM): 538 nM
viability, T/C (second compound 0.1 µM, first compound 0.00316 µM): 110%
viability, T/C (second compound 0.1 µM, first compound 0.01 µM): 96.3%
viability, T/C [1]: 98.1%
viability, T/C [2]: 85.8%
viability, T/C [3]: 68.6%
viability, T/C [4]: 37.2%
viability, T/C (second compound 0.316 µM, first compound 0.00316 µM): 94.3%
viability, T/C (second compound 0.316 µM, first compound 0.01 µM): 106%
viability, T/C [7]: 95.2%
viability, T/C [8]: 83.8%
viability, T/C [9]: 58.7%
viability, T/C [10]: 37.2%
viability, T/C (second compound 1 µM, first compound 0.00316 µM): 97.8%
viability, T/C (second compound 1 µM, first compound 0.01 µM): 98.2%
viability, T/C [13]: 101%
viability, T/C [14]: 84.8%
viability, T/C [15]: 57.4%
viability, T/C [16]: 37.3%
viability, T/C (second compound 3.16 µM, first compound 0.00316 µM): 99.7%
viability, T/C (second compound 3.16 µM, first compound 0.01 µM): 101%
viability, T/C [19]: 92.1%
viability, T/C [20]: 81.5%
viability, T/C [21]: 58%
viability, T/C [22]: 37%
viability, T/C (second compound 10 µM, first compound 0.00316 µM): 89.9%
viability, T/C (second compound 10 µM, first compound 0.01 µM): 89.2%
viability, T/C [25]: 89.1%
viability, T/C [26]: 66.2%
viability, T/C [27]: 60.5%
viability, T/C [28]: 41%

CC1COCCN1c1cc(C2(S(C)(=N)=O)CC2)nc(-c2ccnc3[nH]ccc23)n1 (stereo not given) + Cc1ccccc1N=Nc1ccc(NC(=O)c2ccnn2C)c(C)c1
IC50 (second compound 0.1 µM): > 10000 nM
IC50 (second compound 0.316 µM): > 10000 nM
IC50 (second compound 1 µM): > 10000 nM
IC50 (second compound 3.16 µM): > 10000 nM
IC50 (second compound 10 µM): > 10000 nM
viability, T/C [1]: 107%
viability, T/C [2]: 100%
viability, T/C [3]: 104%
viability, T/C [4]: 109%
viability, T/C [5]: 106%
viability, T/C [6]: 77.6%
viability, T/C [7]: 102%
viability, T/C [8]: 98.1%
viability, T/C [9]: 103%
viability, T/C [10]: 103%
viability, T/C [11]: 92.5%
viability, T/C [12]: 74.1%
viability, T/C [13]: 95.5%
viability, T/C [14]: 94.5%
viability, T/C [15]: 90.6%
viability, T/C [16]: 102%
viability, T/C [17]: 102%
viability, T/C [18]: 71.5%
viability, T/C [19]: 93.3%
viability, T/C [20]: 90.5%
viability, T/C [21]: 99.3%
viability, T/C [22]: 95.4%
viability, T/C [23]: 94.2%
viability, T/C [24]: 68%
viability, T/C [25]: 95.7%
viability, T/C [26]: 90.7%
viability, T/C [27]: 96.2%
viability, T/C [28]: 89.6%
viability, T/C [29]: 86.1%
viability, T/C [30]: 63.1%

COc1ccc([C@@H](O)c2cc(-c3ncnc4cc(N5CCOCC5)ccc34)c(F)cc2Cl)nn1 + Cc1ccccc1N=Nc1ccc(NC(=O)c2ccnn2C)c(C)c1
IC50 (second compound 0.1 µM): > 10000 nM
IC50 (second compound 0.316 µM): > 10000 nM
IC50 (second compound 1 µM): > 10000 nM
IC50 (second compound 3.16 µM): > 10000 nM
IC50 (second compound 10 µM): > 10000 nM
viability, T/C [1]: 92.6%
viability, T/C [2]: 106%
viability, T/C [3]: 114%
viability, T/C [4]: 121%
viability, T/C [5]: 124%
viability, T/C [6]: 96.6%
viability, T/C [7]: 98.1%
viability, T/C [8]: 95.7%
viability, T/C [9]: 104%
viability, T/C [10]: 104%
viability, T/C [11]: 111%
viability, T/C [12]: 99.8%
viability, T/C [13]: 96.6%
viability, T/C [14]: 92%
viability, T/C [15]: 94.6%
viability, T/C [16]: 114%
viability, T/C [17]: 129%
viability, T/C [18]: 97%
viability, T/C [19]: 96.7%
viability, T/C [20]: 100%
viability, T/C [21]: 91.8%
viability, T/C [22]: 103%
viability, T/C [23]: 112%
viability, T/C [24]: 84.4%
viability, T/C [25]: 94.6%
viability, T/C [26]: 94.2%
viability, T/C [27]: 90.8%
viability, T/C [28]: 91%
viability, T/C [29]: 91.4%
viability, T/C [30]: 53.6%

O=C(C=Cn1cnc(-c2cc(C(F)(F)F)cc(C(F)(F)F)c2)n1)NNc1cnccn1 + Cc1ccccc1N=Nc1ccc(NC(=O)c2ccnn2C)c(C)c1
IC50 (second compound 0.1 µM): 827 nM
IC50 (second compound 0.316 µM): 806 nM
IC50 (second compound 1 µM): 906 nM
IC50 (second compound 3.16 µM): 877 nM
IC50 (second compound 10 µM): 987 nM
viability, T/C (second compound 0.1 µM, first compound 0.00949 µM): 111%
viability, T/C (second compound 0.1 µM, first compound 0.03 µM): 114%
viability, T/C (second compound 0.1 µM, first compound 0.0949 µM): 124%
viability, T/C (second compound 0.1 µM, first compound 0.3 µM): 93.4%
viability, T/C (second compound 0.1 µM, first compound 0.949 µM): 45%
viability, T/C (second compound 0.1 µM, first compound 3 µM): 18.2%
viability, T/C (second compound 0.316 µM, first compound 0.00949 µM): 95.8%
viability, T/C (second compound 0.316 µM, first compound 0.03 µM): 125%
viability, T/C (second compound 0.316 µM, first compound 0.0949 µM): 127%
viability, T/C (second compound 0.316 µM, first compound 0.3 µM): 89.1%
viability, T/C (second compound 0.316 µM, first compound 0.949 µM): 45.2%
viability, T/C (second compound 0.316 µM, first compound 3 µM): 17.4%
viability, T/C (second compound 1 µM, first compound 0.00949 µM): 100%
viability, T/C (second compound 1 µM, first compound 0.03 µM): 124%
viability, T/C (second compound 1 µM, first compound 0.0949 µM): 144%
viability, T/C (second compound 1 µM, first compound 0.3 µM): 91.6%
viability, T/C (second compound 1 µM, first compound 0.949 µM): 51.8%
viability, T/C (second compound 1 µM, first compound 3 µM): 20.6%
viability, T/C (second compound 3.16 µM, first compound 0.00949 µM): 99.7%
viability, T/C (second compound 3.16 µM, first compound 0.03 µM): 110%
viability, T/C (second compound 3.16 µM, first compound 0.0949 µM): 124%
viability, T/C (second compound 3.16 µM, first compound 0.3 µM): 88%
viability, T/C (second compound 3.16 µM, first compound 0.949 µM): 48.9%
viability, T/C (second compound 3.16 µM, first compound 3 µM): 21.9%
viability, T/C (second compound 10 µM, first compound 0.00949 µM): 98.5%
viability, T/C (second compound 10 µM, first compound 0.03 µM): 91.5%
viability, T/C (second compound 10 µM, first compound 0.0949 µM): 95.5%
viability, T/C (second compound 10 µM, first compound 0.3 µM): 75.6%
viability, T/C (second compound 10 µM, first compound 0.949 µM): 51.5%
viability, T/C (second compound 10 µM, first compound 3 µM): 30.4%
